ChEMBL document CHEMBL5321194 (J Med Chem, 2023)
Converted amounts (≈) assume the structure as drawn.

Columns and labels:
physchem = settings: phosphate buffer, pH 7.4
[1] = Thermodynamic solubility of the compound in phosphate buffer at pH 7.4
[2] = Clearance in mouse hepatocytes measured per million of cells
[3] = Metabolic stability in mouse liver microsomes assessed as intrinsic clearance
[4] = Clearance in human hepatocytes measured per million of cells
[5] = Efflux ratio of apparent permeability in human Caco-2 cells
[6] = Metabolic stability in human liver microsomes assessed as intrinsic clearance
[7] = Apparent permeability in human Caco-2 cells
SRSF protein kinase 2 [8] = target: T1, SRSF protein kinase 2 (Homo sapiens, UniProt P78362)
Target sequence in this assay (P78362 whole entry): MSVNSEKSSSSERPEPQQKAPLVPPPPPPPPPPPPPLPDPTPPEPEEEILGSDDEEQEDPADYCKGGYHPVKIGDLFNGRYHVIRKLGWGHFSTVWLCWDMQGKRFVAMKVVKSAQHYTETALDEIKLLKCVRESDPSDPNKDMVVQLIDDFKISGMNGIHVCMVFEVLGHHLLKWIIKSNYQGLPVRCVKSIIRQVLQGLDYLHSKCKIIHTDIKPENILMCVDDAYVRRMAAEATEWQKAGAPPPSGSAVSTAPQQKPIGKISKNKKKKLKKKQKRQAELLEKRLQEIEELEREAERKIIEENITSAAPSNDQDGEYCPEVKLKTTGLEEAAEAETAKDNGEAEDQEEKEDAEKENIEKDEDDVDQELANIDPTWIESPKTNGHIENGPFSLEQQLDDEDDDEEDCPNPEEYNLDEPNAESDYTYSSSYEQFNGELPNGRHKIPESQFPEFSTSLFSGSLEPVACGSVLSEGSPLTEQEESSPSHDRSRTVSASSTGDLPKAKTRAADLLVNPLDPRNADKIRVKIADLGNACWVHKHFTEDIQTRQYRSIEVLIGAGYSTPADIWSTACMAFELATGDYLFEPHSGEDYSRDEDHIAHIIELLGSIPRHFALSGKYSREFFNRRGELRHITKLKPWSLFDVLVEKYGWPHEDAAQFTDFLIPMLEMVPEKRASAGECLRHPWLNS

SRSF protein kinase 1 [9] = target: T2, SRSF protein kinase 1 (Homo sapiens, UniProt Q96SB4)
SRSF protein kinase 3 [10] = target: T3, SRSF protein kinase 3 (Homo sapiens, UniProt Q9UPE1)
Description: Inhibition of N-terminal nLuc-fused SRPK3 (unknown origin) transfected in intact HEK293T cells by NanoBRET assay

[11] = target: T4, Dual specificity tyrosine-phosphorylation-regulated kinase 2 (Homo sapiens, UniProt Q92630)
T4 sequence (Q92630 whole entry): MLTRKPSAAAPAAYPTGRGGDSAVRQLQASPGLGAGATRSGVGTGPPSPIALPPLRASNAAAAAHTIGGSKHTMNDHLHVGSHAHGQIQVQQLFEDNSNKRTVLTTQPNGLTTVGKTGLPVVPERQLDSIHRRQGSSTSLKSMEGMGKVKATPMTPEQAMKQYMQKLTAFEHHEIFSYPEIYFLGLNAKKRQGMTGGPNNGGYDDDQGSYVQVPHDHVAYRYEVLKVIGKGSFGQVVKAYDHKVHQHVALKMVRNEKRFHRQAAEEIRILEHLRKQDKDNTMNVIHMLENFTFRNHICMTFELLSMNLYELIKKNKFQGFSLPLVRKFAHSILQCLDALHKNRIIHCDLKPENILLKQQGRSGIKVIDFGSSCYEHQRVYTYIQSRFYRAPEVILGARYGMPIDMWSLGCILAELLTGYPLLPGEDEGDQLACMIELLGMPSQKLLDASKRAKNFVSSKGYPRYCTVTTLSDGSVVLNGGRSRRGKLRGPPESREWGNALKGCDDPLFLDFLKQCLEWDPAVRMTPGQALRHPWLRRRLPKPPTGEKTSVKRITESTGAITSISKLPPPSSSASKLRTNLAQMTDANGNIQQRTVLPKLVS

[12] = target: Dual specificity tyrosine-phosphorylation-regulated kinase 1B (Homo sapiens, UniProt Q9Y463)
[13] = target: Dual specificity protein kinase CLK3 (Homo sapiens, UniProt P49761); experiment: Inhibition of human CLK3 using myelin basic protein as substrate in presence of [gamma-33p]-ATP by radiometric hotspot kinase
[14] = target: Dual specificity protein kinase CLK2 (Homo sapiens, UniProt P49760); experiment: Inhibition of human CLK2 using myelin basic protein as substrate in presence of [gamma-33p]-ATP by radiometric hotspot kinase
[15] = target: Dual specificity protein kinase CLK1 (Homo sapiens, UniProt P49759); experiment: Inhibition of human CLK1 using myelin basic protein as substrate in presence of [gamma-33p]-ATP by radiometric hotspot kinase
[16] = target: Dual specificity protein kinase CLK4 (Homo sapiens, UniProt Q9HAZ1); experiment: Inhibition of human CLK4 using myelin basic protein as substrate in presence of [gamma-33p]-ATP by radiometric hotspot kinase
[17] = target: T5, Dual specificity tyrosine-phosphorylation-regulated kinase 3 (Homo sapiens, UniProt O43781)
T5 sequence (O43781 whole entry): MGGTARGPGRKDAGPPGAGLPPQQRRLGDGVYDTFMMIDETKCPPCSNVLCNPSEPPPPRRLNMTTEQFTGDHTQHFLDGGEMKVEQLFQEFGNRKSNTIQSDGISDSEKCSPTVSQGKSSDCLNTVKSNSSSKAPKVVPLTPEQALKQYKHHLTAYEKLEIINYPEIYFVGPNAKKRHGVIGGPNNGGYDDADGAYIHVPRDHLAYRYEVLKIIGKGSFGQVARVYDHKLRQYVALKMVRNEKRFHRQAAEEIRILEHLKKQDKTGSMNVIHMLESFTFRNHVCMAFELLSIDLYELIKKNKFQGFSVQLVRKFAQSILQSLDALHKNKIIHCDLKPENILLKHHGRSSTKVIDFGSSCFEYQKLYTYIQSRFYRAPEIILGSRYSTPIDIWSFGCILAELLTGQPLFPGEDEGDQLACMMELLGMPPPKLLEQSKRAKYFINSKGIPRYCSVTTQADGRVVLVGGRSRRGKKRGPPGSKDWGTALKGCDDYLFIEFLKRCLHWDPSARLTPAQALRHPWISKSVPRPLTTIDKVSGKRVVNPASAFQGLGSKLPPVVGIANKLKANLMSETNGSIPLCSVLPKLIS

[18] = target: Dual specificity tyrosine-phosphorylation-regulated kinase 1A (Homo sapiens, UniProt Q13627)
SRSF protein kinase 2 [19] = target: T1, SRSF protein kinase 2; remark: listed apart in the source
Target sequence in this assay (P78362 whole entry): as the sequence (P78362 whole entry) above
Description: Inhibition of N-terminal nLuc-fused SRPK2 (unknown origin) transfected in lysed HEK293T cells by NanoBRET assay

SRSF protein kinase 3 [20] = target: T3, SRSF protein kinase 3; remark: listed apart in the source
SRSF protein kinase 1 [21] = target: T2, SRSF protein kinase 1; experiment: Inhibition of C-terminal nLuc-fused SRPK1 (unknown origin) transfected in intact HEK293T cells by NanoBRET assay
SRSF protein kinase 1 [22] = target: T2, SRSF protein kinase 1; settings: time 10.0 min
SRSF protein kinase 2 [23] = target: T1, SRSF protein kinase 2; settings: time 10.0 min
Target sequence in this assay (P78362 whole entry, looked up): as the sequence (P78362 whole entry) above

SRSF protein kinase 3 [24] = target: T3, SRSF protein kinase 3; settings: time 10.0 min
Focal adhesion kinase 1 = Focal adhesion kinase 1 (Homo sapiens, UniProt Q05397)
Description: Inhibition of N-terminal NanoLuc-tagged full length FAK (unknown origin) transfected in HEK293T cells pre-incubated with compound for 2 hrs followed by Nano-Glo substrate addition by NanoBRET analysis

Chain of Dual specificity protein kinase CLK2 (P49760 whole entry): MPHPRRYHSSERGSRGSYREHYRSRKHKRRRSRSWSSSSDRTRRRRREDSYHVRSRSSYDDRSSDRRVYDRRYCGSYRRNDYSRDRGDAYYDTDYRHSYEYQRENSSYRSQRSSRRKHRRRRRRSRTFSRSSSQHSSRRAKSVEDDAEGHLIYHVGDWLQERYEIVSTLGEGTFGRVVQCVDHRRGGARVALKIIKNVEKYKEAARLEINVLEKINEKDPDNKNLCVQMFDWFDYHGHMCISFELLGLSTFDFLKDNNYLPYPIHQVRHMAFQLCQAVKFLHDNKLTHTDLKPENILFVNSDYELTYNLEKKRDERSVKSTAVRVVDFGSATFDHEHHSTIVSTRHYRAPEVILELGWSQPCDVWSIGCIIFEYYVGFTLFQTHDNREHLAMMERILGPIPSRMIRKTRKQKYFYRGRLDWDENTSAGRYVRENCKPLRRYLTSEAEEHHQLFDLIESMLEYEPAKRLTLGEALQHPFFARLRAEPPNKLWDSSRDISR
Chain of Dual specificity protein kinase CLK3 (P49761 whole entry): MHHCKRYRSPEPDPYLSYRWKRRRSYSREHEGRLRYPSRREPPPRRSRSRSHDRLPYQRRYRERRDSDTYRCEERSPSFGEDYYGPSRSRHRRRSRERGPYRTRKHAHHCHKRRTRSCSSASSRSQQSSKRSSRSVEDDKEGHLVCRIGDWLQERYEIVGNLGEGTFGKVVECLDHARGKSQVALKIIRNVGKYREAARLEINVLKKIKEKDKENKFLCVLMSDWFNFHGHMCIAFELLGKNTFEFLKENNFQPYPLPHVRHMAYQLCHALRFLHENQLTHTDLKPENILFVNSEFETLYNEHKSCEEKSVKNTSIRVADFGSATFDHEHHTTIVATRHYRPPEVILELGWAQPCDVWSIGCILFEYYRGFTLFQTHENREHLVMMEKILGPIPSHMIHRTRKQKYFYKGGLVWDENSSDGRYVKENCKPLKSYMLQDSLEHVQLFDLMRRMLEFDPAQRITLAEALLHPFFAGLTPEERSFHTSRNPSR
T3 sequence (Q9UPE1 whole entry): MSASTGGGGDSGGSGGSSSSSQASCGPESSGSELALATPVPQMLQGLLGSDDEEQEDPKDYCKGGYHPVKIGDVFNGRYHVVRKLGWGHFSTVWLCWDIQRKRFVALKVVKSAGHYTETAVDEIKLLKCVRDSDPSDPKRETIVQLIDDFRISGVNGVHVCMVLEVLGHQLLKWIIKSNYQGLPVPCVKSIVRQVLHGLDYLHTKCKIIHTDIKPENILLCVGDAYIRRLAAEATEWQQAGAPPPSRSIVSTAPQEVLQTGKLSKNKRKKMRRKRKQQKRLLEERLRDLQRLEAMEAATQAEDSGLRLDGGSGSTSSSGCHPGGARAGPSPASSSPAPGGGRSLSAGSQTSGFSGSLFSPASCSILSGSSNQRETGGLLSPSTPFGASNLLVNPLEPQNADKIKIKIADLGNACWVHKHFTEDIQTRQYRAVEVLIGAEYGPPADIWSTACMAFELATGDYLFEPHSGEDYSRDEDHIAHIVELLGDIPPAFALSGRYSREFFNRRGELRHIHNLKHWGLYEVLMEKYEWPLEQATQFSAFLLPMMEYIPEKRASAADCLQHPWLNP
Chain of Dual specificity protein kinase CLK1 (P49759 whole entry): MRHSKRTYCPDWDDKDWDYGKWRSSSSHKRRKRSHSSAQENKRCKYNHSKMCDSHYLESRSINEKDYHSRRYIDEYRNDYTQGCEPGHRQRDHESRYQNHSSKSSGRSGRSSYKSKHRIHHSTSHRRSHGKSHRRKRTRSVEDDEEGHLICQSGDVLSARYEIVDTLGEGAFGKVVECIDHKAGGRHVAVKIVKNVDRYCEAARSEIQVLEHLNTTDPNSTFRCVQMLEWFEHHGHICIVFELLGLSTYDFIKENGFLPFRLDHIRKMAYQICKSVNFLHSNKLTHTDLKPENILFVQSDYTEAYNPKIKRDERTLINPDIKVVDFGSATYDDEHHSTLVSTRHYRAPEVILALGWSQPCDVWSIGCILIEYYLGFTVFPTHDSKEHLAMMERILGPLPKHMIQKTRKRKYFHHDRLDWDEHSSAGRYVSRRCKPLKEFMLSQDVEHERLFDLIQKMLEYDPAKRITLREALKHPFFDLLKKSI
T2 sequence (Q96SB4 whole entry): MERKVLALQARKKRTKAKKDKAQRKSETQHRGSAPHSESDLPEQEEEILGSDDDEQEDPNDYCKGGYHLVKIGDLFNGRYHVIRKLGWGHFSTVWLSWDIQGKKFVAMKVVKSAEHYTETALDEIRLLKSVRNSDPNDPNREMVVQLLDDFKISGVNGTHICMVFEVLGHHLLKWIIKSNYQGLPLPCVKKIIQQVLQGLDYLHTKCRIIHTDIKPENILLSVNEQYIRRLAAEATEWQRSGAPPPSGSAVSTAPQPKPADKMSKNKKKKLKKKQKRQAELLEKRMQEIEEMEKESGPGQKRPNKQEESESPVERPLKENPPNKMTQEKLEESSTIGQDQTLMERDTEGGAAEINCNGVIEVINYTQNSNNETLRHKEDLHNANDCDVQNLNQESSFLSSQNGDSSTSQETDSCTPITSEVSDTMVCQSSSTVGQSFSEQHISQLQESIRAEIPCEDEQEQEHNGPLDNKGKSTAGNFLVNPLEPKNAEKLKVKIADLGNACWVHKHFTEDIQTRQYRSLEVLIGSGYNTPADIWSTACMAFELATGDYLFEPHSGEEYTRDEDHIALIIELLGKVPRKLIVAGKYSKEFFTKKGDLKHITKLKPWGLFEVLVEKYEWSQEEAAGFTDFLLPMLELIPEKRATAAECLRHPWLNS
Chain of Dual specificity protein kinase CLK4 (Q9HAZ1 whole entry): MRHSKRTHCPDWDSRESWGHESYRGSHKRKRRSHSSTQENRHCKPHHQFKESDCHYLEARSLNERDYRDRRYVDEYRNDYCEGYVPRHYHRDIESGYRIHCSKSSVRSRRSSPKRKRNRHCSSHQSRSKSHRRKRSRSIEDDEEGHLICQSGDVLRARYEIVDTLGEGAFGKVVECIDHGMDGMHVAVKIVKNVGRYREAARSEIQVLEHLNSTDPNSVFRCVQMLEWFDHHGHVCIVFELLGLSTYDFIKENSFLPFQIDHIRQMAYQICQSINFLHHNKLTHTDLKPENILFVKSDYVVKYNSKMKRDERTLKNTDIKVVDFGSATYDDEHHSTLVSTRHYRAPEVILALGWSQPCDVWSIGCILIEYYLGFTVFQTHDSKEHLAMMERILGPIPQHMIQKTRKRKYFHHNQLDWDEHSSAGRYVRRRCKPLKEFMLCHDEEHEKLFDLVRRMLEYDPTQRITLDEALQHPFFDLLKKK
Chain of Dual specificity tyrosine-phosphorylation-regulated kinase 1B (Q9Y463 whole entry): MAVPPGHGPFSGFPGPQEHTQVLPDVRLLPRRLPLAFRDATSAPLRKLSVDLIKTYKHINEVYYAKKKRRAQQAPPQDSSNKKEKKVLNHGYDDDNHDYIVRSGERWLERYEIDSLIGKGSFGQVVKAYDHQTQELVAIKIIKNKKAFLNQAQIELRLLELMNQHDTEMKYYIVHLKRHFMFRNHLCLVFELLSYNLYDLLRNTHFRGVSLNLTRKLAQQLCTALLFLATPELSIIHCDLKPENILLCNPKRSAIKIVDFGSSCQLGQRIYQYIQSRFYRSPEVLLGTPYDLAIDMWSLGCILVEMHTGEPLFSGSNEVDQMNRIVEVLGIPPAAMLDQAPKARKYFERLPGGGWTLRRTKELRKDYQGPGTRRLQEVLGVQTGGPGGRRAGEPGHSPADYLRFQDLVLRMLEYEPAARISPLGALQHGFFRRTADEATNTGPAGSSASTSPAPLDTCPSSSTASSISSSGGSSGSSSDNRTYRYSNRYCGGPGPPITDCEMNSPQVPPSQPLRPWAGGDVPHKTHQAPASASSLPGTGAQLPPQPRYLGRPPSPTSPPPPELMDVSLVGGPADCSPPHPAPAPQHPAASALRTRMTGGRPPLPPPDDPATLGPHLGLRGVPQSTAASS

Row | SMILES | IC50 (SRSF protein kinase 2 [8]) [nM] | IC50 (SRSF protein kinase 1 [9]) [nM] | IC50 [11] [nM] | IC50 [12] [nM] | IC50 [13] [nM] | IC50 [14] [nM] | IC50 [15] [nM] | IC50 [16] [nM] | IC50 [17] [nM] | IC50 [18] [nM] | IC50 (SRSF protein kinase 3 [20]) [nM] | also measured
1 | CN(c1ncccc1CNc1ccnc(-c2cc3cc(Cl)ccc3[nH]2)n1)S(C)(=O)=O | > 10000 | > 10000 | – | – | – | – | – | – | – | – | – | solubility kinetic at 2 h (physchem): 2.3 µM (≈ 1.02 µg/mL); solubility thermodynamic [1]: < 1 µg/mL; hepatocyte CLint [2]: 1100 µL/min/1e6 cells; CLint [3]: 784 µL/min/mg; hepatocyte CLint [4]: 156 µL/min/1e6 cells; efflux ratio [5]: 1.6; CLint [6]: 771 µL/min/mg; Papp [7]: 2 ×10⁻⁶ cm/s
2 | O=C(Nc1cc(C(F)(F)F)ccc1N1CCCCC1)c1ccncc1 | 1510 | 83 | > 10000 | > 10000 | > 10000 | > 10000 | > 10000 | > 10000 | > 10000 | > 10000 | 27 | EC50 (SRSF protein kinase 3 [10]): 398 nM; EC50 (SRSF protein kinase 2 [19]): 2560 nM; EC50 (SRSF protein kinase 1 [21]): 2360 nM
3 | CN(c1ncccc1CNc1ccnc(-c2nc3c(F)c(Cl)ccc3[nH]2)n1)S(C)(=O)=O | – | – | > 10000 | > 10000 | > 10000 | > 10000 | > 10000 | > 10000 | > 10000 | > 10000 | – | solubility kinetic at 2 h (physchem): < 2 µM; solubility thermodynamic [1]: < 1 µg/mL; hepatocyte CLint [2]: 354 µL/min/1e6 cells; CLint [3]: 196 µL/min/mg; hepatocyte CLint [4]: 51 µL/min/1e6 cells; ΔTm (SRSF protein kinase 1 [22]): 9.1 °C; ΔTm (SRSF protein kinase 2 [23]): 4 °C; CLint [6]: 504 µL/min/mg; ΔTm (SRSF protein kinase 3 [24]): 9.6 °C; Papp [7]: 7.2 ×10⁻⁶ cm/s
4 | c1ccc(-c2nc3ccccc3[nH]2)nc1 | – | – | – | – | – | – | – | – | – | – | – | EC50 (Focal adhesion kinase 1): 103000 nM
5 | O=C(Nc1cc(C(F)(F)F)ccc1N1CCN(Cc2ccccn2)CC1)c1ccc(-c2ccncc2)o1 | 256 | – | > 10000 | 1840 | > 10000 | 5700 | 839 | 266 | > 10000 | 1580 | 166 | EC50 (SRSF protein kinase 3 [10]): 6150 nM; EC50 (SRSF protein kinase 2 [19]): 648 nM
6 | CCc1cc2c(cc1-c1cccc(S(=O)(=O)F)c1)C(C)(C)c1[nH]c3cc(C#N)ccc3c1C2=O | 2.54 | 1.68 | 5720 | 293 | > 30000 | 920 | – | 159 | 6780 | 225 | 4.81 | –
7 | c1ccc(-c2nn[nH]n2)nc1 | – | – | – | – | – | – | – | – | – | – | – | EC50 (Focal adhesion kinase 1): 253000 nM
